Tests used:
[1] = system: Peripheral blood mononuclear cells (T cells); assay: T cell proliferation assay (anti-CD3 OKT3-activated PBMC, [3H]thymidine); assay type: cell-based; conditions: human PBMC activated with OKT3 30 ng/mL, read-out: T cell prolif. IC50
Description: Whole blood was obtained from healthy human blood donors. Peripheral blood mononuclear cells (“PBMC”) were isolated using Lymphoprep density-gradient centrifugation (Nycomed Amersham, Oslo, Norway), washed, counted and resuspended at 2×10^6 cells/mL in RPMI 1640 medium containing glutamine, 0.1 mg/mL gentamycin and 10% heat inactivated human serum. PBMC were transferred to 96-well plates (2×10^5 cells/well) containing compound or vehicle control, with the final concentration of DMSO not to exceed 0.3% and incubated for 1 hour before addition of the activating anti-CD3 antibody, OKT3 (30 ng/mL). After 24 hours in culture, the cells were pulsed with [3H]thymidine (1 μCi/well) overnight and harvested the next day onto 96-well Packard GF/C filter plates using a Packard Cell Harvester (Packard Instruments, Meriden, Conn.). The filter plate was dried, the bottom of the plate sealed, 25 μL of Microscint 20 scintillation fluid added to each well, the top of the plate sealed with TopSeal-A, and the plate counted on a Packard TopCount. The data from the TopCount is transferred into Excel 5 (Microsoft, Redmond, Wash.) and formatted for EC50 determination using Prism software (GraphPad Software, San Diego, Calif.).

[2] = Cytotoxicity assay (Calcein-AM uptake); assay type: cell-based; conditions: human, T-cell lymphoblasts (PHA-expanded PBMC), overnight incubation, Calcein-AM viability
CD45 [3] = target: T1, CD45 (Homo sapiens, UniProt P08575); assay: Phosphatase assay using pNPP as substrate; assay type: biochemical; conditions: pH 7.0
T1 construct: incubating the cytosolic portion of CD45 with the compounds and p-nitrophenyl phosphate (pNPP); purchased BIOMOL (Plymouth Meeting, Pa.)
T1 sequence (P08575 599-1306 limits assumed): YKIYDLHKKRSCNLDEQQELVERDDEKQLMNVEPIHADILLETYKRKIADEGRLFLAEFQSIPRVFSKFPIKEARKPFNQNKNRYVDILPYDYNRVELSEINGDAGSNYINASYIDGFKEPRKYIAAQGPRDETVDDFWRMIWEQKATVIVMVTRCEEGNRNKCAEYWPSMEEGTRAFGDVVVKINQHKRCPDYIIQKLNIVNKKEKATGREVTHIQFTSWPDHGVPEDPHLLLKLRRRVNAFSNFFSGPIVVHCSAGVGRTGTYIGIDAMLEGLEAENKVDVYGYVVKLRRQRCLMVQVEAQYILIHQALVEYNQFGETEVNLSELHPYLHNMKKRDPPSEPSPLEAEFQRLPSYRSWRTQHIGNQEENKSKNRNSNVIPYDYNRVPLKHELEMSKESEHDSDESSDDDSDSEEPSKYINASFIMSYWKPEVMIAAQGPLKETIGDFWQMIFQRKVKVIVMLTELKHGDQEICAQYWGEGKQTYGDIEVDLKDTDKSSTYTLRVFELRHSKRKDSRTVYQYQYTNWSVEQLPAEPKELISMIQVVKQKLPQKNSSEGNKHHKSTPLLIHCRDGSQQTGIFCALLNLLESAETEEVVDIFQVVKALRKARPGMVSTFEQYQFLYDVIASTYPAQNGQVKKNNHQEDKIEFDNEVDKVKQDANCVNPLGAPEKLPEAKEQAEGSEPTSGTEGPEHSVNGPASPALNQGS
Description: (§1) Potent inhibitors of CD45 have been discovered. Such inhibitors are useful for the treatment of various autoimmune disorders as well as for treatment of OGR. Inhibition of the phosphatase activity of CD45 by compounds of the present invention has been shown by incubating the cytosolic portion of CD45 with the compounds and p-nitrophenyl phosphate (pNPP), a phosphatase substrate. Spectrophotometric monitoring has shown that the liberation of p-nitrophenol from the substrate by CD45 is inhibited in the presence of the compounds disclosed herein. Inhibition of the phosphatase activity of CD45 by compounds of the present invention has also been shown using a p56^lck carboxy-terminal phosphorylated peptide as a substrate.
CD45 enzyme was obtained from BIOMOL (Plymouth Meeting, Pa.). Phosphatase activity was assayed in a buffer containing final concentrations of 25 mM imidazole at pH 7.0, 50 mM NaCl, 2.5 mM ethylenediaminetetraacetic acid (“EDTA”), 5 mM dithiothreitol (“DTT”) and 10 μg/mL bovine serum albumin (“BSA”) using pNPP as a substrate.
Activity was measured by following the increase in absorbance at 405 nm using a SpectraMax Plus spectrophotometric plate reader (Molecular Devices, Sunnyvale, Calif.).

CD45 [4] = target: T1, CD45; assay: Phosphatase assay using lck 10-mer as substrate; assay type: biochemical; conditions: lck carboxy-terminal peptide TEGQpYQPQP substrate, pH 7.2, 5% DMSO, read-out: Ick IC50
Description: as §1
Phosphatase activity was assayed in 96 well plates in a buffer containing final concentrations of 25 mM HEPES at pH 7.2, 5 mM DTT and 10 μg/mL BSA, using the lck carboxy-terminal peptide TEGQpYQPQP as the substrate (Cho, H., Krishnaraj. R., Itoh. M., Kitas, E., Bannwarth, W., Saito, H., Walsh, C. T. 1993. Substrate specificities of catalytic fragments of protein tyrosine phosphatases (HPTPb, LAR. and CD45) toward the phosphotyrosylpeptide substrates and thiophosphotyrosylated peptides as inhibitors. Protein Science 2:977-984). Compounds were tested in a range from 30 to 0.01 μM in a final concentration of 5% DMSO. Enzyme was incubated with substrate. with or without compound, at room temperature for 1.5 h. At the end of the incubation period, BIOMOL “Green Reagent” (BIOMOL, Plymouth Meeting, Pa.) was added to each well, the plates incubated at room temperature for 30 min and absorbance read at 620 nm.

Structure (SMILES) | IC50 (CD45 [3]) [µM] | IC50 (CD45 [4]) [µM] | IC50 [1] [µM] | CC50 [2] [µM]
O=C1C=C(c2cc(Cl)cc(Cl)c2)c2ccccc2C1=O [Example 13, 4-(3,5-Dichloro-phenyl)-[1,2]naphthoquinone] | 5.5 | – | 0.3 | 5.5
O=C1C=C(Br)c2ccccc2C1=O [Example 6, 4-Bromo-[1,2]naphthoquinone] | 8.7 | > 30 | 22 | > 30
O=C1C=C(c2ccccc2)c2ccccc2C1=O [Example 11, 4-Phenyl-[1,2]naphthoquinone] | 5 | > 30 | 0.15 | 12
O=C1C=C(c2ccccc2Cl)c2ccccc2C1=O [Example 9, 4-(2-Chloro-phenyl)-[1,2]naphthoquinone] | 8 | > 30 | 0.3 | 124
COC(=O)c1ccc2c(c1)C=CC(=O)C2=O [Example 17, 5,6-Dioxo-5,6-dihydro-naphthalene-2-Carboxylic acid methyl ester] | 7 | > 30 | 7 | > 30
COC(=O)c1cccc2c1C=CC(=O)C2=O [Example 16, 5,6-Dioxo-5,6-dihydro-naphthalene-1-Carboxylic acid methyl ester] | 11 | > 30 | – | > 30
O=C1C=C(c2cccc([N+](=O)[O-])c2)c2ccccc2C1=O [Example 14, 4-(3-Nitro-phenyl)-[1,2]naphthoquinone] | 7.9 | > 30 | 0.2 | 4
O=C1C=Cc2cc(C(=O)c3ccccc3)ccc2C1=O [Example 15, 6-Benzoyl-[1,2]naphthoquinone] | 22 | > 30 | 11 | > 30
O=C1C=Cc2ccccc2C1=O [Example 1, [1,2]-Naphthoquinone] | 3 | > 30 | 7 | > 30
O=C1C=C(c2cccc3ccccc23)c2ccccc2C1=O [Example 12, [1,1′]Binaphthalenyl-3,4-dione] | 22.5 | > 30 | 3.2 | > 30
O=C1C=C(c2ccc(Br)cc2)c2ccccc2C1=O [Example 10, 4-(4-Bromo-phenyl)-[1,2]naphthoquinone] | 7.7 | > 30 | 0.11 | 3
O=C1C=C(Cl)c2ccccc2C1=O [Example 5, 4-Chloro-[1,2]naphthoquinone] | 10 | > 30 | > 30 | > 30

Now from value to compound, other results behind:

IC50 (CD45 [3]) [µM] | IC50 (CD45 [4]) [µM] | Structure (SMILES) | IC50 [1] [µM] | CC50 [2] [µM]
5 | 19 | Cn1cc(C2=CC(=O)C(=O)c3ccccc32)c2ccccc21 [Example 7, 4-(1-Methyl-1H-indol-3-yl)-[1,2]naphthoquinone] | 1.5 | > 30
1.2 | 4.2 | COC1=CC(=O)C(=O)c2ccccc21 [Example 3, 4-Methoxy-[1,2]naphthoquinone] | > 30 | –
1.2 | 4.9 | C=CCOC1=CC(=O)C(=O)c2ccccc21 [Example 4, 4-Allyloxy-[1,2]naphthoquinone] | > 30 | > 30
4.9 | – | O=C1C=Cc2ccc(O)cc2C1=O [Example 18, 7-Hydroxy-[1,2]naphthoquinone] | > 30 | > 30
2.9 | 20 | O=C1C=C(c2c(-c3ccccc3)[nH]c3ccccc23)c2ccccc2C1=O [Example 8, 4-(2-Phenyl-1H-indol-3-yl)-[1,2]naphthoquinone] | 2 | 16
2 | – | CCOC1=CC(=O)C(=O)c2ccccc21 [Example 2, 4-Ethoxy-[1,2]naphthoquinone] | > 30 | 30

From patent US6939896B2, “Cd45 inhibitors” (AstraZeneca AB, priority 1999, dated 2005)
